Reference: patent publication US10927125B2, “Substituted cinnolines as inhibitors of KRAS G12C” (Araxes Pharma LLC, priority 2013, dated 2021)

Target: T1, KRAS G12C 1-169, his-tagged protein, GDP-loaded (Homo sapiens, UniProt P01116, G12C)
T1 construct: KRAS G12C 1-169, his-tagged protein, GDP-loaded
Assay: Biochemical assay: covalent binding of compounds to KRAS G12C, analysed by mass spectrometry
Description: Compounds were tested for activity as follows:
Compounds were diluted to 50× final test concentration in DMSO in 96-well storage plates. […] Reactions were mixed carefully and thoroughly by pipetting up/down with a 200 μl multi-channel pipettor. The plate was sealed well with aluminum plate seal, and stored in drawer at room temperature for 30 min, 2 hour or 24 hrs. 51 μl of 2% formic acid (Fisher cat # A117) in DI H2O was then added to each well followed by mixing with a pipette. The plate was then resealed with aluminum seal and stored on dry ice until analyzed as described below.
The above described assays were analyzed by mass spectrometry according to the following procedure:
The MS instrument is set to positive polarity, 2 GHz resolution, and low mass (1700) mode and allowed to equilibrate for 30 minutes. The instrument is then calibrated, switched to acquisition mode and the appropriate method loaded.
After another 30 minute equilibration time, a blank batch (i.e., buffer) is run to ensure equipment is operating properly. The samples are thawed at 37° C. for 10 minutes, briefly centrifuged, and transfer to the bench top. Wells A1 and H12 are spiked with 1 uL 500 uM internal standard peptide, and the plates centrifuged at 2000×g for 5 minutes. The method is then run and masses of each individual well recorded.
The masses (for which integration data is desired) for each well are pasted into the platemap and exported from the analysis. Masses for the internal standards are exported as well. The data at 50 ppm is extracted for the +19 charge state, and identity of well A1 is assigned using the internal standard spike and integrated. Peak data is exported as a TOF list and the above steps are repeated individually, for the +20, 21, 22, 23, 24, and 25 charge states.

[1] = binding measured at 30 min (compounds 247-375)
[2] = binding measured at 2 h (compounds 48-246)

T1 sequence (P01116 1-169 isoform P01116-2 G12C): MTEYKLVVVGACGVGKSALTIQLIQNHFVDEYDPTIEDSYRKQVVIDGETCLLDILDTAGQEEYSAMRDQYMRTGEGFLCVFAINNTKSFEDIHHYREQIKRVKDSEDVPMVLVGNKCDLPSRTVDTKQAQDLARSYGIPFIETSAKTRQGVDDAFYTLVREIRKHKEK

Row | Compound | Binding % [1] | also measured
1 | C=CC(=O)N1CCN(c2ncnc3c(F)c(-c4c(O)cccc4F)c(Cl)cc23)CC1 [Compound 370, (R)-1-(4-(6-chloro-8-fluoro-7-(2-fluoro-6-hydroxyphenyl)quinazolin-4-yl)piperazin-1-yl)prop-2-en-1-one] | + (+ indicates binding activity from 5% to 25%) | 
2 | C=CC(=O)N1CCN(c2nc(NC3CCN(CC(F)(F)F)C3)nc3c(F)c(-c4cc(O)cc5ccccc45)c(Cl)cc23)CC1 (stereo not shown) [Compound 349, 1-(4-(6-chloro-8-fluoro-7-(3-hydroxynaphthalen-1-yl)-2-(1-(2,2,2-trifluoroethyl)pyrrolidin-3-ylamino)quinazolin-4-yl)piperazin-1-yl)prop-2-en-1-one] | +++ (+++ indicates binding activity greater than 50% and up to 75%) | 
3 | C=CC(=O)N1CCN(c2ncnc3cc(-c4cc(C)cc5[nH]ncc45)c(Cl)cc23)CC1 [Compound 262, 1-(4-(6-chloro-7-(6-methyl-1H-indazol-4-yl)quinazolin-4-yl)piperazin-1-yl)prop-2-en-1-one] | + (+ indicates binding activity from 5% to 25%) | 
4 | C=CC(=O)N1CCN(c2nc(NCCc3nccn3C)nc3c(F)c(-c4c(C)ccc5[nH]ncc45)c(Cl)cc23)CC1 [Compound 352, 1-(4-(6-chloro-8-fluoro-2-(2-(1-methyl-1H-imidazol-2-yl)ethylamino)-7-(5-methyl-1H-indazol-4-yl)quinazolin-4-yl)piperazin-1-yl)prop-2-en-1-one] | ++++ (++++ indicates binding activity greater than 75%) | 
5 | C=CC(=O)N1CCN(c2nc(C)nc3cc(Cl)c(-c4ccc(Cl)cc4)cc23)CC1 [Compound 50, 1-(4-(7-chloro-6-(4-chlorophenyl)-2-methylquinazolin-4-yl)piperazin-1-yl)prop-2-en-1-one] |  | Binding % [2]: + (+ indicates binding activity from 5% to 25%)
6 | C=CC(=O)N1CCN(c2ncnc3c(F)c(-c4c(F)ccc5cn[nH]c45)c(Cl)cc23)CC1 [Compound 368, 1-(4-(6-chloro-8-fluoro-7-(6-fluoro-1H-indazol-7-yl)quinazolin-4-yl)piperazin-1-yl)prop-2-en-1-one] | ++++ (++++ indicates binding activity greater than 75%) | 
7 | C=CC(=O)N1CCN(c2nc(OCCN(C)C)nc3c(F)c(-c4cc(O)cc5ccccc45)c(Cl)cc23)CC1 [Compound 374, 1-(4-(6-chloro-2-(2-(dimethylamino)ethoxy)-8-fluoro-7-(3-hydroxynaphthalen-1-yl)quinazolin-4-yl)piperazin-1-yl)prop-2-en-1-one] | +++ (+++ indicates binding activity greater than 50% and up to 75%) | 
8 | C=CC(=O)N1CCN(c2ncnc3cc(-c4c(O)cccc4F)c(Cl)c(F)c23)CC1 [Compound 343, 1-(4-(6-chloro-5-fluoro-7-(2-fluoro-6-hydroxyphenyl)quinazolin-4-yl)piperazin-1-yl)prop-2-en-1-one] | +++ (+++ indicates binding activity greater than 50% and up to 75%) | 
9 | C=CC(=O)N1CCN(c2cnnc3cc(-c4cc(O)cc5ccccc45)c(C(F)(F)F)cc23)CC1 [Compound 351, 1-(4-(7-(3-hydroxynaphthalen-1-yl)-6-(trifluoromethyl)cinnolin-4-yl)piperazin-1-yl)prop-2-en-1-one] | ++++ (++++ indicates binding activity greater than 75%) | 
10 | C=CC(=O)N1CCN(c2c(C(N)=O)cnc3cc(-c4ccccc4F)c(Cl)cc23)CC1 [Compound 189, 4-(4-acryloylpiperazin-1-yl)-6-chloro-7-(2-fluorophenyl)quinoline-3-carboxamide] |  | Binding % [2]: ++ (++ indicates binding activity greater than 25% and up to 50%)
11 | C=CC(=O)N1CCN(c2ncnc3c(F)c(-c4cc(O)cc5ccccc45)c(Cl)cc23)CC1CO (stereo not shown) [Compound 256, 1-(4-(6-chloro-8-fluoro-7-(3-hydroxynaphthalen-1-yl)quinazolin-4-yl)-2-(hydroxymethyl)piperazin-1-yl)prop-2-en-1-one] | +++ (+++ indicates binding activity greater than 50% and up to 75%) | 
12 | C=CC(=O)N1CCN(c2nccc3cc(Cl)c(-c4ccc(Cl)cc4O)cc23)CC1 [Compound 38, 1-(4-(6-chloro-7-(4-chloro-2-hydroxyphenyl)isoquinolin-1-yl)piperazin-1-yl)prop-2-en-1-one] |  | Binding % (binding measured at 24 h (compounds 1-47)): ++ (++ indicates binding activity greater than 25% and up to 50%)
13 | C=CC(=O)N1CCN(c2nc(Oc3cnn(C)c3)nc3c(F)c(-c4c(C)ccc5[nH]ncc45)c(Cl)cc23)CC1 [Compound 375, 1-(4-(6-chloro-8-fluoro-7-(5-methyl-1H-indazol-4-yl)-2-(1-methyl-1H-pyrazol-4-yloxy)quinazolin-4-yl)piperazin-1-yl)prop-2-en-1-one] | +++ (+++ indicates binding activity greater than 50% and up to 75%) | 
14 | C=CC(=O)N1CCN(c2nc(OCCN(C)C)nc3c(F)c(-c4c(C)ccc5[nH]ncc45)c(Cl)cc23)CC1C (stereo not shown) [Compound 367, 1-(4-(6-chloro-2-(2-(dimethylamino)ethoxy)-8-fluoro-7-(5-methyl-1H-indazol-4-yl)quinazolin-4-yl)-2-methylpiperazin-1-yl)prop-2-en-1-one] | ++++ (++++ indicates binding activity greater than 75%) | 
15 | C=CC(=O)N1CCN(c2ncnc3c(F)c(-c4c(F)ccc5c(C)n[nH]c45)c(Cl)cc23)CC1 [Compound 359, 1-(4-(6-chloro-8-fluoro-7-(6-fluoro-3-methyl-1H-indazol-7-yl)quinazolin-4-yl)piperazin-1-yl)prop-2-en-1-one] | ++++ (++++ indicates binding activity greater than 75%) | 
16 | C=CC(=O)N1CCN(c2nc(NC3CCOCC3)nc3c(F)c(-c4c(C)ccc5[nH]ncc45)c(Cl)cc23)CC1 [Compound 365, 1-(4-(6-chloro-8-fluoro-7-(5-methyl-1H-indazol-4-yl)-2-(tetrahydro-2H-pyran-4-ylamino)quinazolin-4-yl)piperazin-1-yl)prop-2-en-1-one] | ++++ (++++ indicates binding activity greater than 75%) | 
17 | C=CC(=O)N1CCN(c2nc(N(C)C)nc3c(F)c(-c4cc(O)cc5ccccc45)c(Cl)cc23)CC1 [Compound 344, 1-(4-(6-chloro-2-(dimethylamino)-8-fluoro-7-(3-hydroxynaphthalen-1-yl)quinazolin-4-yl)piperazin-1-yl)prop-2-en-1-one] | +++ (+++ indicates binding activity greater than 50% and up to 75%) | 
18 | C=CC(=O)N1CCN(c2ncnc3cc(-c4ccc(F)cc4C(F)(F)F)c(Cl)cc23)CC1 [Compound 119, 1-(4-(6-chloro-7-(4-fluoro-2-(trifluoromethyl)phe-nyl)quinazolin-4-yl)piperazin-1-yl)prop-2-en-1-one] |  | Binding % [2]: +++ (+++ indicates binding activity greater than 50% and up to 75%)
19 | C=CC(=O)N1CCN(c2cnnc3cc(-c4c(C)ccc5[nH]ncc45)c(C(F)(F)F)cc23)CC1 [Compound 350, 1-(4-(7-(5-methyl-1H-indazol-4-yl)-6-(trifluoromethyl)cinnolin-4-yl)piperazin-1-yl)prop-2-en-1-one] | ++++ (++++ indicates binding activity greater than 75%) | 
20 | C=CC(=O)N1CCN(c2nc(NC)nc3c(F)c(-c4cc(O)cc5ccccc45)c(Cl)cc23)CC1 [Compound 345, 1-(4-(6-chloro-8-fluoro-7-(3-hydroxynaphthalen-1-yl)-2-(methylamino)quinazolin-4-yl)piperazin-1-yl)prop-2-en-1-one] | ++++ (++++ indicates binding activity greater than 75%) | 
21 | C=CC(=O)N1CCN(c2ncnc3c(F)c(-c4c(F)cccc4CN(C)C)c(Cl)cc23)CC1 [Compound 362, 1-(4-(6-chloro-7-(2-((dimethylamino)methyl)-6-fluorophenyl)-8-fluoroquinazolin-4-yl)piperazin-1-yl)prop-2-en-1-one] | ++ (++ indicates binding activity greater than 25% and up to 50%) | 
22 | C=CC(=O)N1CCC(n2c(=O)cnc3cc(-c4ccc(F)cc4F)c(Cl)cc32)CC1 [Compound 151, 1-(1-acryloylpiperidin-4-yl)-7-chloro-6-(2,4-difluorophenyl)quinoxalin-2(1H)-one] |  | Binding % [2]: + (+ indicates binding activity from 5% to 25%)
23 | C=CC(=O)N1CCN(c2nc(NCC(F)(F)F)nc3c(F)c(-c4c(C)ccc5[nH]ncc45)c(Cl)cc23)CC1 [Compound 356, 1-(4-(6-chloro-8-fluoro-7-(5-methyl-1H-indazol-4-yl)-2-(2,2,2-trifluoroethylamino)quinazolin-4-yl)piperazin-1-yl)prop-2-en-1-one] | +++ (+++ indicates binding activity greater than 50% and up to 75%) | 
24 | C=CC(=O)N1CCN(c2nc(NC3CCN(C)C3)nc3c(F)c(-c4c(C)ccc5[nH]ncc45)c(Cl)cc23)CC1 (stereo not shown) [Compound 372, 1-(4-(6-chloro-8-fluoro-7-(5-methyl-1H-indazol-4-yl)-2-(1-methylpyrrolidin-3-ylamino)quinazolin-4-yl)piperazin-1-yl)prop-2-en-1-one] | +++ (+++ indicates binding activity greater than 50% and up to 75%) | 
25 | C=CC(=O)N1CCN(c2ncnc3cc(-c4cc(Cl)cc5[nH]ncc45)c(Cl)cc23)CC1 [Compound 266, 1-(4-(6-chloro-7-(6-chloro-1H-indazol-4-yl)quinazolin-4-yl)piperazin-1-yl)prop-2-en-1-one] | +++ (+++ indicates binding activity greater than 50% and up to 75%) | 
